Settings: 101.33 kPa, Liquid; for speed of sound: Pulse-echo method; for mass density: Vibrating tube method

CCCCC(=O)[O-].C[NH2+]CCO [2-hydroxy-N-methylethanaminium pentanoate]
Settings | mass density [kg/m3] | speed of sound [m/s] | viscosity [mPa·s]
278.15 K | 1029.68 | 1616.6 | –
278.4 K | 1029.52 | 1615.6 | –
278.65 K | 1029.35 | 1614.7 | –
278.9 K | 1029.18 | 1613.8 | –
279.15 K | 1029.01 | 1612.8 | –
279.4 K | 1028.85 | 1611.9 | –
279.65 K | 1028.68 | 1611 | –
279.9 K | 1028.51 | 1610.1 | –
280.15 K | 1028.35 | 1609.1 | –
280.4 K | 1028.18 | 1608.2 | –
280.65 K | 1028.01 | 1607.3 | –
280.9 K | 1027.85 | 1606.4 | –
281.15 K | 1027.68 | 1605.5 | –
281.4 K | 1027.51 | 1604.6 | –
281.65 K | 1027.34 | 1603.7 | –
281.9 K | 1027.18 | 1602.8 | –
282.15 K | 1027.01 | 1601.9 | –
282.4 K | 1026.84 | 1601 | –
282.65 K | 1026.67 | 1600.1 | –
282.9 K | 1026.51 | 1599.2 | –
283.15 K | 1026.34 | 1598.3 | –
283.4 K | 1026.17 | 1597.5 | –
283.65 K | 1026.01 | 1596.6 | –
283.9 K | 1025.84 | 1595.7 | –
284.15 K | 1025.67 | 1594.8 | –
284.4 K | 1025.5 | 1593.9 | –
284.65 K | 1025.34 | 1593.1 | –
284.9 K | 1025.17 | 1592.2 | –
285.15 K | 1025 | 1591.3 | –
285.4 K | 1024.83 | 1590.5 | –
285.65 K | 1024.66 | 1589.6 | –
285.9 K | 1024.5 | 1588.8 | –
286.15 K | 1024.33 | 1587.9 | –
286.4 K | 1024.16 | 1587.1 | –
286.65 K | 1023.99 | 1586.2 | –
286.9 K | 1023.83 | 1585.4 | –
287.15 K | 1023.66 | 1584.5 | –
287.4 K | 1023.49 | 1583.7 | –
287.65 K | 1023.32 | 1582.8 | –
287.9 K | 1023.15 | 1582 | –
288.15 K | 1022.99 | 1581.2 | 450.93
288.4 K | 1022.82 | 1580.3 | –
288.65 K | 1022.65 | 1579.5 | –
288.9 K | 1022.48 | 1578.7 | –
289.15 K | 1022.31 | 1577.8 | –
289.4 K | 1022.14 | 1577 | –
289.65 K | 1021.97 | 1576.2 | –
289.9 K | 1021.81 | 1575.3 | –
290.15 K | 1021.64 | 1574.5 | –
290.4 K | 1021.47 | 1573.7 | –
290.65 K | 1021.3 | 1572.9 | 368.78
290.9 K | 1021.13 | 1572 | –
291.15 K | 1020.96 | 1571.2 | –
291.4 K | 1020.79 | 1570.4 | –
291.65 K | 1020.62 | 1569.6 | –
291.9 K | 1020.45 | 1568.8 | –
292.15 K | 1020.28 | 1568 | –
292.4 K | 1020.12 | 1567.2 | –
292.65 K | 1019.95 | 1566.3 | –
292.9 K | 1019.78 | 1565.5 | –
293.15 K | 1019.61 | 1564.7 | 319.63
293.4 K | 1019.44 | 1563.9 | –
293.65 K | 1019.27 | 1563.1 | –
293.9 K | 1019.1 | 1562.3 | –
294.15 K | 1018.93 | 1561.5 | –
294.4 K | 1018.76 | 1560.7 | –
294.65 K | 1018.59 | 1559.9 | –
294.9 K | 1018.42 | 1559.1 | –
295.15 K | 1018.25 | 1558.3 | –
295.4 K | 1018.08 | 1557.5 | –
295.65 K | 1017.91 | 1556.7 | 273.03
295.9 K | 1017.74 | 1555.9 | –
296.15 K | 1017.57 | 1555.1 | –
296.4 K | 1017.4 | 1554.3 | –
296.65 K | 1017.23 | 1553.5 | –
296.9 K | 1017.06 | 1552.7 | –
297.15 K | 1016.89 | 1551.9 | –
297.4 K | 1016.72 | 1551.1 | –
297.65 K | 1016.55 | 1550.3 | –
297.9 K | 1016.38 | 1549.6 | –
298.15 K | 1016.21 | 1548.8 | 234.44
298.4 K | 1016.03 | 1548 | –
298.65 K | 1015.86 | 1547.2 | –
298.9 K | 1015.69 | 1546.4 | –
299.15 K | 1015.52 | 1545.6 | –
299.4 K | 1015.35 | 1544.8 | –
299.65 K | 1015.19 | 1544 | –
299.9 K | 1015.02 | 1543.3 | –
300.15 K | 1014.85 | 1542.5 | –
300.4 K | 1014.69 | 1541.7 | –
300.65 K | 1014.52 | 1540.9 | 205.32
300.9 K | 1014.36 | 1540.1 | –
301.15 K | 1014.19 | 1539.3 | –
301.4 K | 1014.03 | 1538.5 | –
301.65 K | 1013.86 | 1537.8 | –
301.9 K | 1013.7 | 1537 | –
302.15 K | 1013.53 | 1536.2 | –
302.4 K | 1013.36 | 1535.4 | –
302.65 K | 1013.2 | 1534.6 | –
302.9 K | 1013.03 | 1533.9 | –
303.15 K | 1012.86 | 1533.1 | 175.84
303.4 K | 1012.7 | 1532.3 | –
303.65 K | 1012.53 | 1531.5 | –
303.9 K | 1012.37 | 1530.7 | –
304.15 K | 1012.2 | 1530 | –
304.4 K | 1012.03 | 1529.2 | –
304.65 K | 1011.87 | 1528.4 | –
304.91 K | 1011.7 | 1527.6 | –
305.15 K | 1011.53 | 1526.8 | –
305.4 K | 1011.37 | 1526.1 | –
305.65 K | 1011.19 | 1525.3 | 147.42
305.9 K | 1011.03 | 1524.5 | –
306.15 K | 1010.86 | 1523.8 | –
306.4 K | 1010.69 | 1523 | –
306.65 K | 1010.52 | 1522.2 | –
306.9 K | 1010.36 | 1521.5 | –
307.15 K | 1010.19 | 1520.7 | –
307.4 K | 1010.02 | 1519.9 | –
307.65 K | 1009.85 | 1519.1 | –
307.9 K | 1009.68 | 1518.4 | –

Reference: the NIST ThermoML archive (doi:10.1021/je900550v)
